Measured values reported in US11725036B2, “Modified lipidated relaxin B chain peptides and their therapeutic use” (Sanofi, priority 2018, dated 2023).
≈ marks a conversion by molar mass, not a printed value. Like-named read-outs stand apart in the source and are kept apart here. Starred links: 1 amine or outer side, 2 acyl side, 3 side chain; linkers in the order of their positions; H or OH if unused. Non-standard residues stand in square brackets, D forms with d. Residues, ends and D or L forms follow the SMILES beside them. Groups on a side chain read outwards from the residue. *: point of attachment. X5 = CCCCCCCCCCCCCCCC(=O)N[C@@H](CCC(=O)N[C@@H](CCC(=O)N[C@@H](CCC(=O)NCCCOCCOCCOCCCNC(=O)CCC(=O)NCCCOCCOCCOCCCNC(=O)CCC(=O)NCCCOCCOCCOCCCNC(=O)CCC(=O)NCCCOCCOCCOCCCN*)C(=O)O)C(=O)O)C(=O)O; X1 = CCCCCCCCCCCCCCCC(=O)N[C@@H](CCC(=O)N[C@@H](CCC(=O)N[C@@H](CCC(=O)NCCCOCCOCCOCCCNC(=O)CCC(=O)NCCCOCCOCCOCCCNC(=O)CCC(=O)NCCCOCCOCCOCCCN*)C(=O)O)C(=O)O)C(=O)O; Suc = O=C(CCC(=O)[*:2])[*:1]; Aib = CC(C)(N)C(=O)O

Experiments:
[1] = Solubility testing in buffer; type: physicochemical; conditions: target solubility 10.0 mg/ml
RXFP1 = target: T1, RXFP1 (Homo sapiens, UniProt Q9HBX9); experiment: OVCAR5 cAMP assay (HTRF); type: cell-based; conditions: for EC50: OVCAR 5 cells expressing endogenous RXFP1, cAMP readout; for Emax: OVCAR 5 cells, maximal cAMP relative to H2-relaxin
T1 construct: OVCAR5 cells expressing endogenous RXFP1; endogenous in cells; host or cells: OVCAR5
T1 sequence (Q9HBX9 1-757): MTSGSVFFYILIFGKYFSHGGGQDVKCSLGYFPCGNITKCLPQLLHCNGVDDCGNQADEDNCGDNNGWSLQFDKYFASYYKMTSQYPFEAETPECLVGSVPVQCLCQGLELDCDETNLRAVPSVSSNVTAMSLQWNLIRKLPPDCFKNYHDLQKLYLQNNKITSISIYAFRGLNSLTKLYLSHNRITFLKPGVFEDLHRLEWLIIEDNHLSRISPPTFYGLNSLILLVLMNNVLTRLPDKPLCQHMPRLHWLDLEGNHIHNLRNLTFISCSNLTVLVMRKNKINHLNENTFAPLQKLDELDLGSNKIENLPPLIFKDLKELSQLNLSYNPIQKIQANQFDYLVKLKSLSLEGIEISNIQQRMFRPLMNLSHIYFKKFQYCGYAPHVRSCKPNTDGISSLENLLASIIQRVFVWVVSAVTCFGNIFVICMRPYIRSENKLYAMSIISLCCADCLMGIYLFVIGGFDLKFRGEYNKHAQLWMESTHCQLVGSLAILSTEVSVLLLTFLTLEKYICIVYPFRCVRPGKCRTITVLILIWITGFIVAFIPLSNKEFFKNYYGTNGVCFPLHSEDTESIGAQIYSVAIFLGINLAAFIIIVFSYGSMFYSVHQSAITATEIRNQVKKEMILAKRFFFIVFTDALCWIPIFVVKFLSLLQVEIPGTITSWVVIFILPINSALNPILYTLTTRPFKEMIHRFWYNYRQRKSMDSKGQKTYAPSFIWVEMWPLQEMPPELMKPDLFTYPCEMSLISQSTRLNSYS
Method in brief: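 Endogenous RXFP1 in OVCAR5 cells, pretreated 40 min at 37° C with 1 mM IBMX, then exposed to increasing peptide concentrations in serum-free medium for 30 min at 37° C. cAMP read by HTRF; EC50 by variable-slope sigmoidal fit, Emax as % of H2-relaxin maximal cAMP in same run.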

in vivo = experiment: in vivo; design: species or system Sprague Dawley rats; conditions: rat
Method: Prior to the testing of a peptide batch, its purity (HPLC-UV) was determined. Dose was corrected for presence of salts, solvent and purity. Bioanalytical screening method for quantification of peptides in rat: Sprague Dawley rats were dosed with study peptide at a dose of 1 mg/kg intravenously (i.v.) or 3 mg/kg subcutaneously (s.c.) as a solution in PBS (0.2 mg/ml and 0.6 mg/ml respectively). Blood samples were collected after: 0.083, 0.25, 0.5, 1, 2, 4, 8, 24, 48 and 72 h (i.v. route) and 0.25, 0.5, 1, 2, 4, 6, 8, 10, 24, 48 and 72 h (s.c route) post application. Plasma samples were analyzed after protein precipitation via liquid chromatography mass spectrometry (LC/MS). PK parameters and half-life were calculated using Phoenix 64 (WinNonlin 6.4)-Pharsight (Certara™) (non-compartment model). Values below the limit of quantification (BLQ) were replaced by zero for subsequent calculations and PK analysis. T½: in-vivo half-life, time required for test compound plasma concentration to be divided by two during the PK experiment. C0: Extrapolated test compound plasma concentration at t=0 time point (i.v. route). Cmax: maximal test compound plasma concentration at the indicated time point (s.c. route). Tmax: Time point where Cmax was attained. F %: s.c. vs i.v. bioavailability, dose-corrected area under curve (AUC) s.c. route divided by AUC i.v.

[2] = Stability in human plasma; type: in vitro ADME; conditions: T = 0, 37° C., 5 μM
Method: (§1) Prior to the testing of stability in plasma (or blood) of a peptide batch, its purity (HPLC-UV) was determined.
(§2) Rat and Human plasma: anti-coagulant sodium or lithium heparin.
(§3) 100 μM solution of study compound in 50 mM phosphate buffer pH 7.4.
(§4) 950 μL plasma (or blood) was pre-incubated for 5 min at 37° C. 50 μL of compound stock solution was added. Final compound concentration=5 μM. Vortex and transfer 150 μL plasma (or blood) into an Eppendorf for each time point. The time points […] were carried out in duplicate for each species.
(§5) After incubation, 150 μL plasma (or blood) was extracted with 600 μL Acetonitrile containing 1% TFA. Said mixture was then vortexed and centrifuged 10 min at 14600 rpm. 200 μL supernatant was dried under N2. Sample was then reconstituted in 200 μL of H2O/CH3CN 98/2+0.1% FA+50 ng/ml Labetalol and analyzed using the analytical system used in solubility and stability studies.
(§6) For determination of the amount of the remaining peptide, the peak areas of the target compound at t0 and each time point […] were compared, resulting in “% remaining peptide”, following the equation: % remaining peptide=[(peak area peptide time)×100]/peak area peptide t0. The stability was expressed as “% remaining peptide”.

Stability in rat plasma = type: in vitro ADME; conditions: T = 0, 37° C., 5 μM
Method: as §1, §2, §3, §4, §5, §6

[3] = acetate buffer 50 mM pH 4.5, read-out: Solubility Acetate buffer pH 4.5
[4] = phosphate buffer 50 mM pH 7.4, read-out: Solubility phosphate buffer pH 7.4

Row | Compound | solubility [1, 3] [µg/mL] | solubility [1, 4] [µg/mL] | EC50 (RXFP1) [nM] | Emax (RXFP1) [%] | Human Plasma stability % remaining [2] [%] | Rat plasma stability % remaining (Stability in rat plasma) [%] | further results
1 | CCCCCCCCCCCCCCCC(=O)N[C@@H](CCC(=O)N[C@@H](CCC(=O)N[C@@H](CCC(=O)NCCCOCCOCCOCCCNC(=O)CCC(=O)NCCCOCCOCCOCCCNC(=O)CCC(=O)NCCCOCCOCCOCCCNC(=O)CCC(=O)NCCCC[C@H](NC(=O)CNC(=O)[C@H](CCC(=O)O)NC(=O)C(C)(C)NC(=O)C(C)(C)NC(=O)[C@@H](NC(=O)[C@H](CCCCNC(C)=O)NC(=O)[C@H](C)NC(=O)[C@H](CCCNC(=N)N)NC(=O)[C@@H](NC(=O)[C@H](CCCNC(=N)N)NC(=O)[C@H](CCC(=O)O)NC(=O)[C@H](CCCNC(=N)N)NC(=O)CNC(=O)[C@H](CCC(=O)O)NC(=O)[C@H](CC(C)C)NC(C)=O)C(C)C)[C@@H](C)CC)C(=O)N[C@@H](CO)C(=O)N[C@H](C(=O)N[C@@H](Cc1c[nH]c2ccccc12)C(=O)N[C@@H](CO)C(=O)NC(C)(C)C(=O)N[C@@H](CCCNC(=N)N)C(=O)N[C@@H](CCCNC(=N)N)C(=O)N[C@@H](CCCCNC(C)=O)C(N)=O)[C@@H](C)O)C(=O)O)C(=O)O)C(=O)O [compound 55] (Ac-LEGRERVRAK(Ac)I[Aib][Aib]EGK([Suc-X1])STWS[Aib]RRK(Ac)-NH2) | 9260 (≈ 2080 µM) | 8840 (≈ 1980 µM) | 0.18 | 93 |  |  | C0 (in vivo; Sprague Dawley, iv, 1 mg/kg): 4910 nM; half-life (in vivo; Sprague Dawley, iv, 1 mg/kg): 4.89 h; bioavailability (in vivo; Sprague Dawley, sc): 65%; Cmax (in vivo; Sprague Dawley, sc, 3 mg/kg): 2070 nM; Tmax (in vivo; Sprague Dawley, sc, 3 mg/kg): 6 h
2 | CCCCCCCCCCCCCCCC(=O)N[C@@H](CCC(=O)N[C@@H](CCC(=O)N[C@@H](CCC(=O)NCCCOCCOCCOCCCNC(=O)CCC(=O)NCCCOCCOCCOCCCNC(=O)CCC(=O)NCCCOCCOCCOCCCNC(=O)CCC(=O)NCCCC[C@H](NC(=O)CNC(=O)[C@H](CCC(=O)O)NC(=O)C(C)(C)NC(=O)C(C)(C)NC(=O)[C@@H](NC(=O)[C@H](CCCCNC(C)=O)NC(=O)[C@H](C)NC(=O)[C@H](CCCNC(=N)N)NC(=O)[C@@H](NC(=O)[C@H](CCCCN)NC(=O)[C@H](CCC(=O)O)NC(=O)[C@H](CCCNC(=N)N)NC(=O)CNC(=O)[C@H](CCC(=O)O)NC(=O)[C@H](CC(C)C)NC(C)=O)C(C)C)[C@@H](C)CC)C(=O)N[C@@H](CO)C(=O)N[C@H](C(=O)N[C@@H](Cc1ccccc1)C(=O)NC(C)(C)C(=O)N[C@@H](CCCNC(=N)N)C(=O)N[C@@H](CCCNC(=N)N)C(=O)N[C@@H](C)C(=O)N[C@@H](CCCCNC(C)=O)C(N)=O)[C@@H](C)O)C(=O)O)C(=O)O)C(=O)O [compound 72] (Ac-LEGREKVRAK(Ac)I[Aib][Aib]EGK([Suc-X1])STF[Aib]RRAK(Ac)-NH2) | 8250 (≈ 1890 µM) | 8720 (≈ 1990 µM) | 0.56 | 91 |  |  | 
3 | CCCCCCCCCCCCCCCC(=O)N[C@@H](CCC(=O)N[C@@H](CCC(=O)N[C@@H](CCC(=O)NCCCOCCOCCOCCCNC(=O)CCC(=O)NCCCOCCOCCOCCCNC(=O)CCC(=O)NCCCOCCOCCOCCCNC(=O)CCC(=O)NCCCOCCOCCOCCCNC(=O)CCC(=O)NCCCC[C@H](NC(=O)CNC(=O)[C@H](CCC(=O)O)NC(=O)[C@@H](NC(=O)C(C)(C)NC(=O)[C@@H](NC(=O)[C@H](CCCCNC(C)=O)NC(=O)[C@H](C)NC(=O)[C@H](CCCNC(=N)N)NC(=O)[C@@H](NC(=O)[C@H](CCCCN)NC(=O)[C@H](CCC(=O)O)NC(=O)[C@H](CCCNC(=N)N)NC(=O)CNC(=O)[C@H](CCC(=O)O)NC(=O)[C@H](CC(C)C)NC(C)=O)C(C)C)[C@@H](C)CC)[C@@H](C)CC)C(=O)N[C@@H](CO)C(=O)N[C@H](C(=O)N[C@@H](Cc1c[nH]c2ccccc12)C(=O)N[C@@H](CO)C(=O)NC(C)(C)C(=O)N[C@@H](CCCNC(=N)N)C(=O)N[C@@H](CCCCN)C(=O)N[C@@H](CCCCNC(C)=O)C(N)=O)[C@@H](C)O)C(=O)O)C(=O)O)C(=O)O [compound 74] (Ac-LEGREKVRAK(Ac)I[Aib]IEGK([Suc-X5])STWS[Aib]RKK(Ac)-NH2) | 7390 (≈ 1560 µM) | 8470 (≈ 1790 µM) | 0.54 | 94 |  |  | 
4 | CCCCCCCCCCCCCCCC(=O)N[C@@H](CCC(=O)N[C@@H](CCC(=O)N[C@@H](CCC(=O)NCCCOCCOCCOCCCNC(=O)CCC(=O)NCCCOCCOCCOCCCNC(=O)CCC(=O)NCCCOCCOCCOCCCNC(=O)CCC(=O)NCCCOCCOCCOCCCNC(=O)CCC(=O)NCCCC[C@H](NC(=O)CNC(=O)[C@H](CCC(=O)O)NC(=O)C(C)(C)NC(=O)C(C)(C)NC(=O)[C@@H](NC(=O)[C@H](CCCCNC(C)=O)NC(=O)[C@H](C)NC(=O)[C@H](CCCNC(=N)N)NC(=O)[C@@H](NC(=O)[C@H](CCCNC(=N)N)NC(=O)[C@H](CCC(=O)O)NC(=O)[C@H](CCCNC(=N)N)NC(=O)CNC(=O)[C@H](CCC(=O)O)NC(=O)[C@H](CC(C)C)NC(C)=O)C(C)C)[C@@H](C)CC)C(=O)N[C@@H](CO)C(=O)N[C@H](C(=O)N[C@@H](Cc1c[nH]c2ccccc12)C(=O)N[C@@H](CO)C(=O)NC(C)(C)C(=O)N[C@@H](CCCNC(=N)N)C(=O)N[C@@H](CCCNC(=N)N)C(=O)N[C@@H](CCCCNC(C)=O)C(N)=O)[C@@H](C)O)C(=O)O)C(=O)O)C(=O)O [compound 75] (Ac-LEGRERVRAK(Ac)I[Aib][Aib]EGK([Suc-X5])STWS[Aib]RRK(Ac)-NH2) | 8580 (≈ 1800 µM) | 9560 (≈ 2010 µM) | 0.19 | 97 |  |  | 
5 | Ac-VIKLSGRELVRAQIAISGMSTWSKKKK-NH2 [KKKK(AcB7-29 C11.23S), reference compound] |  |  |  |  | 100 | 100 | 
6 | Ac-VIKLSGRELVRAQIAISGMSTWSKRSL-NH2 [AcB7-33 C11.23S, reference compound] |  |  |  |  | 100 | 100 | 
7 | H2-Relaxin: 6-kDa peptidic hormone of 53 amino acids; A chain (SEQ ID NO: 100) and B chain (SEQ ID NO: 101) cross-linked by disulfide bonds |  |  |  |  |  |  | C0 (in vivo; iv, 1 mg/kg): 870 nM; T½ (h), in-vivo half-life (in vivo; iv, 1 mg/kg): 0.46 h
8 | H-VIKLSGRELVRAQIAISGMSTWSKRSL-NH2 [B7-33 C11.23S, reference compound] |  |  |  |  | 100 | 100 | 
